How the values were obtained:
Type in all cases: cell-based
[1] = test system: Mel-Ab melanin cells; test: Melanin biosynthesis inhibiting effect in Mel-Ab melanin cells; settings: for melanin biosynthesis inhibition: terrein 0-100 uM, kojic acid 0-100 uM, FIG. 5 and FIG. 6
Experimental: Particularly, Mel-Ab melanin cells were cultured in DMEM medium supplemented with 10% fetal bovine serum (FBS), 100 nM phobol 12-myristate 13-acetate, 1 nM cholera toxin, 50 ug/ml of streptomycin and 50 U/ml of penicillin under the condition of 5% CO2, 37° C. Mel-Ab melanin cells cultured in the above experimental example 1 were treated respectively with terrein compound and kojic acid, a conventional whitening agent, at different concentrations (0, 10, 25, 50, 75 and 100 uM of terrein compound and 0, 1, 10 and 100 uM of kojic acid). Both Mel-Ab melanin cells cultured under general culture conditions and Mel-Ab melanin cells treated with terrein compound of the present invention were observed under a microscope for comparison, and the result was shown in FIG. 7.

[2] = test system: MITF (microphthalmia-associated transcription factor); test: MITF decomposition in Mel-Ab melanin cells by Western blot; settings: 100 uM, with ERK activation
Experimental: (§1) In order to investigate melanin biosynthesis inhibiting mechanism of terrein compound of the present invention, Mel-Ab melanin cells cultured above were treated with 100 uM of terrein compound. And at each time point of 0, 2, 10, 30, 60, 180, and 360 minute, ERK (extracellular signal-regulated kinase) activation and MITF (microphthalmia-associated transcription factor) decomposition were investigated by Western blot.

[3] = test system: Mel-Ab melanin cells; test: Cytotoxicity test, crystal violet staining of Mel-Ab cells; settings: 24 hours, under the concentration of 100 uM, FIG. 4
Experimental: In order to investigate cytotoxicity of terrein compound of the present invention, Mel-Ab cells were treated with the terrein compound.
Particularly, Mel-Ab melanin cells were cultured in DMEM medium supplemented with 10% fetal bovine serum (FBS), 100 nM phobol 12-myristate 13-acetate, 1 nM cholera toxin, 50 ug/ml of streptomycin and 50 U/ml of penicillin under the condition of 5% CO2, 37° C.
Mel-Ab melanin cells cultured above were treated with terrein compound at different concentrations (0, 10, 25, 50, 75, 100 uM) for 24 hours, followed by further culture. Then, medium was removed. Cells were stained with 0.5 ml of 0.1% crystal violet and Mel-Ab melanin cells were checked. Crystal violet was removed by washing several times. Crystal violet remaining in cells was extracted by using 1.0 ml of 95% ethanol. OD590 of the extracted crystal violet was measured by ELISA reader in order to investigate vitality of cells.

[4] = test system: ERK (extracellular signal-regulated kinase); test: ERK activation in Mel-Ab melanin cells by Western blot; settings: 100 uM
Experimental: as §1

Compound | melanin biosynthesis inhibition [1] | expression of MITF [2] | cytotoxicity (vitality of cells, OD590 of crystal violet) [3] | melanin biosynthesis inhibiting effect relative to kojic acid ([1]; both at 10 uM) [times] | dark melanin of cells observed under a microscope ([1]; dose-dependently, FIG. 7) | duration of ERK activation [4] [h] | time from treatment to ERK1 and ERK2 activation [4] [min] | ERK1 and ERK2 activation ([4]; FIG. 8)
O=c1cc(CO)occ1O [kojic acid, reference compound] | inhibited melanin biosynthesis dose-dependently | – | – | – | – | – | – | –
C/C=C/C1=CC(=O)C(O)C1O (stereo not drawn) [terrein compound, 4,5-dihydroxy-3-propenyl-2-cyclopenten-1-one] | inhibited melanin biosynthesis dose-dependently | decreased | no cytotoxicity | 10 | clearly decreased | ≥ 6 | 2 to 10 | activated fast

Source: patent publication US20070128136A1, “Terrein compound having melanin biosynthesis inhibitors and its preparation” (priority 2003, published 2007)
